The supplement of paper PMC11451515

Columns and labels:
Settings in all cases: 48 h
NOMO1 [1] = assay: AUC of viability dose-response curve (% viability x log10 dose units); higher = less sensitive
Summary of the method: (§1)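 Area under the curve was integrated by trapezoidal rule from a log-logistic fit of normalised viability, with curves exceeding full viability scaled and quality-control failures removed. The fit had four parameters over log10 doses. Viability came from CellTiter-Glo One luminescence, normalised per plate to DMSO and cell-free wells, after leukemia cells adapted to each medium (500 or 1000 cells/well, 1536-well plates) were exposed to library compounds in DMSO for 48 h at 37°C. The 11 threefold doses ran from 47 μM to 0.79 nM.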

P12-Ichikawa [2] = assay: as above
Summary of the method: as §1

SEM cells [3] = assay: as above
Summary of the method: as §1

SEM cells [4] = assay: cell viability relative to DMSO control; higher = less cytotoxic
Summary of the method: (§2)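 NOMO1 or SEM (500 cells/well) or P12-Ichikawa (1000 cells/well) leukemia cells were adapted for at least four passages in each medium. They were seeded in 1536-well plates (5 μl) and pin-dosed with library compounds in DMSO over an 11-point threefold series, 47 μM to 0.79 nM. CellTiter-Glo One luminescence was read after 48 h at 37°C. Viability is the per-plate percentage relative to DMSO wells, with cell-free wells as background.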

NOMO1 [5] = assay: as above
Summary of the method: as §2

P12-Ichikawa [6] = assay: as above
Summary of the method: as §2

[7] = RPMI 5 mM glucose + 10% dialyzed FBS
[8] = HPLM + 10% dialyzed FBS, 0.000781 µM
[9] = HPLM + 10% dialyzed FBS, 0.00234 µM
[10] = HPLM + 10% dialyzed FBS, 0.00702 µM
[11] = HPLM + 10% dialyzed FBS, 0.0211 µM
[12] = HPLM + 10% dialyzed FBS, 0.0632 µM
[13] = HPLM + 10% dialyzed FBS, 0.19 µM
[14] = HPLM + 10% dialyzed FBS, 0.569 µM
[15] = HPLM + 10% dialyzed FBS, 1.71 µM
[16] = HPLM + 10% dialyzed FBS, 5.12 µM
[17] = HPLM + 10% dialyzed FBS, 15.4 µM
[18] = HPLM + 10% dialyzed FBS, 46.1 µM
[19] = RPMI 5 mM glucose + 10% FBS, 0.000781 µM
[20] = RPMI 5 mM glucose + 10% FBS, 0.00234 µM
[21] = RPMI 5 mM glucose + 10% FBS, 0.00702 µM
[22] = RPMI 5 mM glucose + 10% FBS, 0.0211 µM
[23] = RPMI 5 mM glucose + 10% FBS, 0.0632 µM
[24] = RPMI 5 mM glucose + 10% FBS, 0.19 µM
[25] = RPMI 5 mM glucose + 10% FBS, 0.569 µM
[26] = RPMI 5 mM glucose + 10% FBS, 1.71 µM
[27] = RPMI 5 mM glucose + 10% FBS, 5.12 µM
[28] = RPMI 5 mM glucose + 10% FBS, 15.4 µM
[29] = RPMI 5 mM glucose + 10% FBS, 46.1 µM
[30] = RPMI 5 mM glucose + 10% dialyzed FBS, 0.000781 µM
[31] = RPMI 5 mM glucose + 10% dialyzed FBS, 0.00234 µM
[32] = RPMI 5 mM glucose + 10% dialyzed FBS, 0.00702 µM
[33] = RPMI 5 mM glucose + 10% dialyzed FBS, 0.0211 µM
[34] = RPMI 5 mM glucose + 10% dialyzed FBS, 0.0632 µM
[35] = RPMI 5 mM glucose + 10% dialyzed FBS, 0.19 µM
[36] = RPMI 5 mM glucose + 10% dialyzed FBS, 0.569 µM
[37] = RPMI 5 mM glucose + 10% dialyzed FBS, 1.71 µM
[38] = RPMI 5 mM glucose + 10% dialyzed FBS, 5.12 µM
[39] = RPMI 5 mM glucose + 10% dialyzed FBS, 15.4 µM
[40] = RPMI 5 mM glucose + 10% dialyzed FBS, 46.1 µM

## CC[C@@H](C(N)=O)N1CCCC1=O
NOMO1 [1]; HPLM + 10% dialyzed FBS
  AUC of viability dose-response curve: 442
NOMO1 [1]; RPMI 5 mM glucose + 10% FBS
  AUC of viability dose-response curve: 466
NOMO1 [1]; [7]
  AUC of viability dose-response curve: 456
P12-Ichikawa [2]; HPLM + 10% dialyzed FBS
  AUC of viability dose-response curve: 458
P12-Ichikawa [2]; RPMI 5 mM glucose + 10% FBS
  AUC of viability dose-response curve: 460
P12-Ichikawa [2]; [7]
  AUC of viability dose-response curve: 467
SEM cells [3]; HPLM + 10% dialyzed FBS
  AUC of viability dose-response curve: 450
SEM cells [3]; RPMI 5 mM glucose + 10% FBS
  AUC of viability dose-response curve: 420
SEM cells [3]; [7]
  AUC of viability dose-response curve: 443

## N[C@@H](Cc1c[nH]c2ccc(O)cc12)C(=O)O
NOMO1 [1]; HPLM + 10% dialyzed FBS
  AUC of viability dose-response curve: 391
NOMO1 [1]; RPMI 5 mM glucose + 10% FBS
  AUC of viability dose-response curve: 411
NOMO1 [1]; [7]
  AUC of viability dose-response curve: 392
P12-Ichikawa [2]; HPLM + 10% dialyzed FBS
  AUC of viability dose-response curve: 462
P12-Ichikawa [2]; RPMI 5 mM glucose + 10% FBS
  AUC of viability dose-response curve: 444
P12-Ichikawa [2]; [7]
  AUC of viability dose-response curve: 458
SEM cells [3]; HPLM + 10% dialyzed FBS
  AUC of viability dose-response curve: 454
SEM cells [3]; RPMI 5 mM glucose + 10% FBS
  AUC of viability dose-response curve: 401
SEM cells [3]; [7]
  AUC of viability dose-response curve: 398
SEM cells [4]; [8]
  cell viability: 114%
SEM cells [4]; [9]
  cell viability: 110%
SEM cells [4]; [10]
  cell viability: 120%
SEM cells [4]; [11]
  cell viability: 120%
SEM cells [4]; [12]
  cell viability: 94.1%
SEM cells [4]; [13]
  cell viability: 121%
SEM cells [4]; [14]
  cell viability: 105%
SEM cells [4]; [15]
  cell viability: 110%
SEM cells [4]; [16]
  cell viability: 102%
SEM cells [4]; [17]
  cell viability: 85%
SEM cells [4]; [18]
  cell viability: 80.8%

## COc1cc(Nc2ncc(F)c(Nc3ccc4c(n3)N(COP(=O)(O)O)C(=O)C(C)(C)O4)n2)cc(OC)c1OC
NOMO1 [1]; HPLM + 10% dialyzed FBS
  AUC of viability dose-response curve: 472
NOMO1 [1]; RPMI 5 mM glucose + 10% FBS
  AUC of viability dose-response curve: 453
NOMO1 [1]; [7]
  AUC of viability dose-response curve: 438
P12-Ichikawa [2]; HPLM + 10% dialyzed FBS
  AUC of viability dose-response curve: 470
P12-Ichikawa [2]; RPMI 5 mM glucose + 10% FBS
  AUC of viability dose-response curve: 456
P12-Ichikawa [2]; [7]
  AUC of viability dose-response curve: 457
SEM cells [3]; HPLM + 10% dialyzed FBS
  AUC of viability dose-response curve: 287
SEM cells [3]; RPMI 5 mM glucose + 10% FBS
  AUC of viability dose-response curve: 292
SEM cells [3]; [7]
  AUC of viability dose-response curve: 245
NOMO1 [5]; [8]
  cell viability: 93.5%
NOMO1 [5]; [9]
  cell viability: 94.8%
NOMO1 [5]; [10]
  cell viability: 101%
NOMO1 [5]; [11]
  cell viability: 97.2%
NOMO1 [5]; [12]
  cell viability: 122%
NOMO1 [5]; [13]
  cell viability: 106%
NOMO1 [5]; [14]
  cell viability: 87.6%
NOMO1 [5]; [15]
  cell viability: 99.5%
NOMO1 [5]; [16]
  cell viability: 116%
NOMO1 [5]; [17]
  cell viability: 93.5%
NOMO1 [5]; [18]
  cell viability: 91.1%
NOMO1 [5]; [19]
  cell viability: 80.8%
NOMO1 [5]; [20]
  cell viability: 90.2%
NOMO1 [5]; [21]
  cell viability: 94.1%
NOMO1 [5]; [22]
  cell viability: 100%
NOMO1 [5]; [23]
  cell viability: 103%
NOMO1 [5]; [24]
  cell viability: 98.6%
NOMO1 [5]; [25]
  cell viability: 95.6%
NOMO1 [5]; [26]
  cell viability: 94.4%
NOMO1 [5]; [27]
  cell viability: 94.1%
NOMO1 [5]; [28]
  cell viability: 94.2%
NOMO1 [5]; [29]
  cell viability: 92.6%
NOMO1 [5]; [30]
  cell viability: 101%
NOMO1 [5]; [31]
  cell viability: 89%
NOMO1 [5]; [32]
  cell viability: 90.8%
NOMO1 [5]; [33]
  cell viability: 80.2%
NOMO1 [5]; [34]
  cell viability: 89.6%
NOMO1 [5]; [35]
  cell viability: 102%
NOMO1 [5]; [36]
  cell viability: 88.5%
NOMO1 [5]; [37]
  cell viability: 86.6%
NOMO1 [5]; [38]
  cell viability: 94.6%
NOMO1 [5]; [39]
  cell viability: 89.4%
NOMO1 [5]; [40]
  cell viability: 99.1%
P12-Ichikawa [6]; [8]
  cell viability: 97%
P12-Ichikawa [6]; [9]
  cell viability: 102%
P12-Ichikawa [6]; [10]
  cell viability: 101%
P12-Ichikawa [6]; [11]
  cell viability: 102%
P12-Ichikawa [6]; [12]
  cell viability: 108%
P12-Ichikawa [6]; [13]
  cell viability: 106%
P12-Ichikawa [6]; [14]
  cell viability: 105%
P12-Ichikawa [6]; [15]
  cell viability: 103%
P12-Ichikawa [6]; [16]
  cell viability: 110%
P12-Ichikawa [6]; [17]
  cell viability: 108%
P12-Ichikawa [6]; [18]
  cell viability: 98.2%
P12-Ichikawa [6]; [19]
  cell viability: 100%
P12-Ichikawa [6]; [20]
  cell viability: 98.2%
P12-Ichikawa [6]; [21]
  cell viability: 89.6%
P12-Ichikawa [6]; [22]
  cell viability: 100%
P12-Ichikawa [6]; [23]
  cell viability: 97.4%
P12-Ichikawa [6]; [24]
  cell viability: 96.8%
P12-Ichikawa [6]; [25]
  cell viability: 92.4%
P12-Ichikawa [6]; [26]
  cell viability: 95.7%
P12-Ichikawa [6]; [27]
  cell viability: 95.2%
P12-Ichikawa [6]; [28]
  cell viability: 93.9%
P12-Ichikawa [6]; [29]
  cell viability: 87.4%
P12-Ichikawa [6]; [30]
  cell viability: 92.8%
P12-Ichikawa [6]; [31]
  cell viability: 94.8%
P12-Ichikawa [6]; [32]
  cell viability: 98.4%
P12-Ichikawa [6]; [33]
  cell viability: 98%
P12-Ichikawa [6]; [34]
  cell viability: 103%
P12-Ichikawa [6]; [35]
  cell viability: 97.7%
P12-Ichikawa [6]; [36]
  cell viability: 93.9%
P12-Ichikawa [6]; [37]
  cell viability: 91.1%
P12-Ichikawa [6]; [38]
  cell viability: 101%
P12-Ichikawa [6]; [39]
  cell viability: 91.6%
P12-Ichikawa [6]; [40]
  cell viability: 91.6%
SEM cells [4]; [8]
  cell viability: 77%
SEM cells [4]; [9]
  cell viability: 88.7%
SEM cells [4]; [10]
  cell viability: 95.8%
SEM cells [4]; [11]
  cell viability: 91.2%
SEM cells [4]; [12]
  cell viability: 65.9%
SEM cells [4]; [13]
  cell viability: 55.2%
SEM cells [4]; [14]
  cell viability: 35%
SEM cells [4]; [15]
  cell viability: 33.5%
SEM cells [4]; [16]
  cell viability: 49.9%
SEM cells [4]; [17]
  cell viability: 37.1%
SEM cells [4]; [18]
  cell viability: 35.5%
SEM cells [4]; [19]
  cell viability: 98.2%
SEM cells [4]; [20]
  cell viability: 108%
SEM cells [4]; [21]
  cell viability: 102%
SEM cells [4]; [22]
  cell viability: 107%
SEM cells [4]; [23]
  cell viability: 77.9%
SEM cells [4]; [24]
  cell viability: 41.1%
SEM cells [4]; [25]
  cell viability: 26.5%
SEM cells [4]; [26]
  cell viability: 34.7%
SEM cells [4]; [27]
  cell viability: 42.8%
SEM cells [4]; [28]
  cell viability: 35.1%
SEM cells [4]; [29]
  cell viability: 34.4%
SEM cells [4]; [30]
  cell viability: 80.8%
SEM cells [4]; [31]
  cell viability: 96.6%
SEM cells [4]; [32]
  cell viability: 83.5%
SEM cells [4]; [33]
  cell viability: 82.1%
SEM cells [4]; [34]
  cell viability: 60.2%
SEM cells [4]; [35]
  cell viability: 35.7%
SEM cells [4]; [36]
  cell viability: 25.1%
SEM cells [4]; [37]
  cell viability: 23.7%
SEM cells [4]; [38]
  cell viability: 35.1%
SEM cells [4]; [39]
  cell viability: 22%
SEM cells [4]; [40]
  cell viability: 24.6%
